Reference: patent US20040224935A1, “Topical antiandrogenic steroids” (Endorecherche, Inc., priority 2003, published 2004)
pIC50: −log10 of the molar value. Like-named read-outs stand apart in the source and are kept apart here.

Assays:
[1] = system: Hamster's ear sebaceous glands; test: Topical antiandrogenic activity, histomorphometry of the ear sebaceous glands in the hamster; assay type: in vivo, Male Golden Syrian hamster; details: Mesocricetus auratus, 336 h, once daily, 14 days, sebaceous gland area, read-out: Antiandrogenic activity in Hamster's sebaceous glands Inh. Vs Cx (%); for inhibition in vivo at 0.001 mg: dose 1 μg applied topically on left ear of intact male hamster; for inhibition in vivo at 0.003 mg: dose 3 μg applied topically on left ear of intact male hamster; for inhibition in vivo at 0.01 mg: dose 10 μg applied topically on left ear of intact male hamster
From the text: Column 3 represents the dose of antiandrogenic compounds applied on the left ear of the intact male hamster.
Column 4 represents the relative inhibition in % of the area of the sebaceous gland of the left ear versus control hamster. Higher values approaching the effect of castration are preferable
The Antiandrogenic activity of antiandrogenic compounds has been measured using a Histomorphometry assay of the Ear Sebaceous Glands in the Hamster
1. Animals Male Golden Syrian, Hamster (SYR) of 110-120 g were obtained from Harlan Sprague Dawlay (Madison, USA) and housed up to 2 per cage in plastic cages in a temperature (22±3° C.) and light (12 h light/day, lights on at 7 h 15) in a controlled environment. The hamsters were fed with Certified Rodent Diet 5002 (pellet) and tap water ad libitum. The animals were acclimated for at least five days before the beginning of the study. Animals were randomly assigned to groups of eight hamsters. One group of hamsters was castrated under isoflurane-induced anesthesia on the day of dosing initiation (SD 1) and used as control group.
2. Treatments To evaluate the antiandrogenic activity, tested compounds were applied topically on the inner part of the left ear, once daily, for 14 days. Ten μL solution of acetone: ethanol: propylene Glycol (1:1:2; v:v:v) containing 0.1, 0.3 or 1.0 mg/mL of tested compound was carefully applied onto a region between the two cartilage ridges of the ventral surface of left pinna. For animals in the castrated and intact control groups ten-μL vehicle was applied onto the left ear. No solution will be applied on the right ear for any animals of the study.
3. Postmortem Observations and Measurements On Study Day 15, the hamsters were euthanized by cervical dislocation under isoflurane anesthesia. The left and right ears were collected attached together by the head skin, flat fixed on a paper and were immersed in 10% neutral buffered formalin. From the flat fixed ear and using paper puncture that makes a hole of 6 mm, the region where solution was applied was collected from each ear. Using a scalpel blade, the collected 6 mm round ear specimen was cut in the middle between the two cartilage ridges. The two equal parts of the ear round specimen were embedded in paraffin. After processing the tissue, the two parts were vertically embedded parallel to each other in a way that the flat 6 mm area was facing out. From each paraffin block, one section (5 μm thick) was cut and collected on a glass slide. Thus, each slide contained two elongated sections of 6 mm length. Slides were stained with hematoxylin and eosin.
4. Analysis of Sebaceous Gland Area Using the video camera and objective lens number X5 of the light microscope, the resulting field that appears on the screen has a length of 0.953 mm. From the glass slide, when we have examined the first 6 mm long section from the left to the right, the first and second fields were ignored and the third and fourth fields were captured for analysis by the image analyzer. Each field has the length of 0.953 mm. With the help of the screen mouse, the sebaceous glands within the whole field length (0.953mm) were marked. Also, an area with the length of the whole field and the height between stratum granulosum and the upper edge of the cartilage was drawn.
The image analyzer calculated the total area of the sebaceous glands (μm^2) in each examined field. We also obtained the area, which has the length of 0.953 mm and the height between stratum granulosum and the cartilage. In addition, the percentage of the area occupied by the glands was obtained. Thus, for each ear, two sections were cut and two fields from each section were analyzed. The total of the four readings was averaged and the mean standard of error calculated by the image analyzer. The results were expressed in μm^2 as the total surface of glands per field and also as percentage of the area occupied by the glands.

[2] = system: rat prostate; test: Systemic antiandrogenic activity in immature male rats (castrated, DHT implant), prostate weight; details: po, 168 h, 0.5 mg/animal per os once daily 7 days, % efficacy relative to inhibition by flutamide, read-out: RAT (in vivo) (systemic) Prostate Inh. % inh. (0.5 mg, per os)
Protocol: Column 5 represents the % of antiandrogenic efficacy in rat prostate, relatively to the percentage of inhibition of flutamide calculated by the formula:
(§1) % efficacy versus Flu=100×% inhib (compound)/% inhib (Flu).
(§2) Where the percentage of inhibition (% inhib) is calculated by the following formula:
% lnhib=100−[W (compound)−W (control)/W (DHT)−W (control)]×100.
W is the weight of the prostate.
(§3) C Systemic antiandrogenic activity (immature male rats)
(§4) 1. Animals Immature male rats (Crl:CD(SD)Br) 22 to 24-day old were obtained from Charles-River, Inc. (St-Constant, Quebec, Canada) and housed up to 5 per cage in plastic bins in a temperature (23±1° C.)—and light (12 h light/day, lights on at 7h15)—controlled environment. The rats were fed rodent chow and tap water ad libitum. The day following their arrival, the animals were orchidectornized (CX) under Isoflurane anesthesia via scrotal route and randomly assigned to groups of 5 animals. One silastic implant of dihydrotestosterone (DHT; length of implant: 1 cm) was inserted subcutaneously in the dorsal area of animals at the time of orchidectomy. One group of 5 animals was CX only as control (no DHT implant inserted).
(§5) 2. Treatments To evaluate the antiandrogenic activity, tested compounds were administered orally by gavage once daily at a dose of 0.5 mg/animal for 7 days (SD 1 to 7). Compounds were solubilized (when possible) in dimethylsulfoxide (DMS, 10% final concentration) and administered as suspension in 0.4% methylcellulose. Rats in CX control and CX+DHT control groups received the vehicle alone during the 7-day period. One group of animals received the antiandrogen Flutamide as reference. The animals were killed by cervical dislocation under isoflurane anesthesia on the 8th morning following castration. The ventral prostate and seminal vesicles were rapidly dissected and weighed.
(§6) 3. Calculations and Statistical Analysis The percentage of inhibition (% inhib) is calculated by the following formula:
(§7) % Inhib=100−[W (compound)−W (control)/W (DHT)−W (control)]×100.
(§8) This percentage is reported as % of efficacy, relatively to the percentage of inhibition of flutaride calculated by the formula: % efficacy versus Flu=100×% inhib (compound)/% inhib (Flu).
(§9) W is the weight of the prostate or the seminal vesicle.

[3] = system: rat seminal vesicle; test: Systemic antiandrogenic activity in immature male rats (castrated, DHT implant), seminal vesicle weight; details: po, 168 h, 0.5 mg/animal per os once daily 7 days, % efficacy relative to inhibition by flutamide, read-out: RAT (in vivo) (systemic) SV Inh % inh. (0.5 mg, per os)
Protocol: Column 6 represents the % of antiandrogenic efficacy on the rat seminal vesicle, relative to the percentage of inhibition by flutamide calculated by the formula:
as §1, §2, §7
W is the weight of the seminal vesicle.
as §3, §4, §5, §6, §8, §9

[4] = system: Shionogi mouse mammary carcinoma cells; test: In vitro androgenic/antiandrogenic activity, DHT-stimulated Shionogi cell number; assay type: cell-based; details: for IC50: Mus musculus, read-out: Shionogis (In Vitro) IC50(nM), inhibition of DHT-stimulated cell number, 10-12 days; for Shionogis (In Vitro) VS OH-FLU (ratio of Ki of hydroxyflutamide versus tested compound): OH-Flu = 1, DHT-stimulated cell number, higher values preferable

| Structure (SMILES) | inhibition in vivo at 0.001 mg [1] [%] | inhibition in vivo at 0.003 mg [1] [%] | inhibition in vivo at 0.01 mg [1] [%] | inhibition in vivo at 0.5 mg [2] [%] | inhibition in vivo at 0.5 mg [3] [%] | IC50 [4] [nM] | pIC50 ([4]; read-out: Shionogis (In Vitro) IC50, inhibition of DHT-stimulated cell number, 10-12 days) | Shionogis (In Vitro) VS OH-FLU (ratio of Ki of hydroxyflutamide versus tested compound) [4] |
| --- | --- | --- | --- | --- | --- | --- | --- | --- |
| CC1(C)CC2C3CCc4c(C#N)cccc4C3CC[C@]2(C)[C@H]1O (stereo partly drawn) [EM-2557] | 52.4 | 42.8 | 66.6 | 6 | 0 | 15 | 7.74 | – |
| CC#C[C@@H]1CC2C3CCc4c(C#N)cccc4C3CC[C@]2(C)[C@H]1O (stereo partly drawn) [EM-2627] | 14.3 | 42.8 | 66.6 | 0 | 25 | 7.8 | – | 8.3 |
| CCC=C[C@]1(O)CCC2C3CCc4c(C#N)cccc4C3CC[C@@]21C (stereo partly drawn) [EM-3144] | 9.5 | 71.4 | 71.4 | 8 | 12 | 4.4 | – | 8.5 |
| CCCC#C[C@@H]1CC2C3CCc4c(C#N)cccc4C3CC[C@]2(C)[C@H]1O (stereo partly drawn) [EM-3165] | 19 | 14.3 | 23.8 | 1 | 14 | 15.1 | – | 7.2 |
| CC(C)C#C[C@]1(O)CCC2C3CCc4c(C#N)cccc4C3CC[C@@]21C (stereo partly drawn) [EM-3166] | 47.6 | 66.6 | 76.2 | 0 | 15 | 21.8 | – | 5.0 |
| CC(=O)O[C@H]1C(C)(C)CC2C3CCc4c(C#N)cccc4C3CC[C@@]21C (stereo partly drawn) [EM-3178] | 9.5 | 9.5 | 38.1 | 0 | 0 | 17 | – | 4.1 |
| CC[C@@]1(C)C[C@H]2[C@@H]3CCc4c(C#N)cccc4[C@H]3CC[C@]2(C)C1=O [EM-3180, 4-cyano-16α-methyl-16β-ethyl-1,3,5(10)-estratrien-17-one] | 57.1 | 90.5 | 95.2 | 0 | 0 | 35 | – | 2 |
| CC[C@]1(C)CC2C3CCc4c(C#N)cccc4C3CC[C@]2(C)C1=O (stereo partly drawn) [EM-3217] | 4.8 | 0 | 42.8 | – | – | – | – | ˜1 |
| CC[C@@]1(C)C[C@H]2[C@@H]3CCc4c(C#N)cccc4[C@H]3CC[C@]2(C)[C@H]1O [EM-3221, 4cyano-16α-methyl-16β-ethyl-1,3,5(10)-estratrien-17β-ol] | 0 | 9.5 | 33.3 | 0 | 1 | 3.2 | – | 6.6 |
| C[C@@H]1CC2C3CCc4c(C#N)cccc4C3CC[C@]2(C)C1=O (stereo partly drawn) [EM-3223] | 25.9 | 37 | 59.2 | 0 | 18 | – | – | – |
| CC[C@]1(C)CC2C3CCc4c(C#N)cccc4C3CC[C@]2(C)[C@H]1O (stereo partly drawn) [EM-3226] | 7.4 | 29.6 | 33.3 | 0 | 0 | 3.6 | – | 5.9 |
| CCC1(CC)CC2C3CCc4c(C#N)cccc4C3CC[C@]2(C)C1=O (stereo partly drawn) [EM-3411] | 3.7 | 14.8 | 62.9 | 0 | 10 | – | – | ˜1 |
| CC1(C)CC2C3CCc4c(Cl)cccc4C3CC[C@]2(C)[C@H]1O (stereo partly drawn) [EM-3415] | 0 | 11.1 | 44.4 | 0 | 0 | 26 | – | 2.5 |
| C[C@]12CCC3c4cccc(C#N)c4CCC3C1C[C@@H](C#CC1CC1)[C@@H]2O (stereo partly drawn) [EM-3473] | 7.4 | 0 | 14.8 | 0 | 0 | 9.3 | – | 9 |
| CC1(C)C[C@H]2[C@@H]3CCc4cc(F)ccc4[C@H]3CC[C@]2(C)[C@H]1O [EM-3497, 3fluoro-16,16-dimethyl-1,3,5(10)-estratrien-17β-ol] | 62.9 | 62.9 | 77.7 | 0 | 0 | 46 | – | 1.5 |
